The text below walks through data of BindingDB's records for patent US11248013 (Rakovina Therapeutics, 2022).

This experiment addresses Poly [ADP-ribose] polymerase 1 (Homo sapiens, UniProt P09874). Briefly: Enzyme Assay. The method, then: Inhibition of PARP-1 enzymatic activities was measured using an HT Universal Colorimetric PARP Assay Kit (Trevigen, catalogue #4677-096-K) following the standard procedures. Serial dilutions of PARP compounds were added to appropriate wells. The compound was incubated with PARP enzyme at RT for 10 min, and the reaction was initiated by addition of the PARP substrate cocktail, Each concentration of compound was tested in triplicate wells. After 15 min reaction, the reaction was stopped, and the Strep-HRP was added into each well and incubated for 1 h at RT. After addition of TACS-Sapphire colorimetric substrate and incubated in dark for 15 min, the OD450 was read out with an EnVision instrument. IC50 values (the concentration at which 50% of the enzyme activity is inhibited) were calculated, which are determined over a range of different concentrations, normally from 10 uM to 0.1 nM.

Sequence of Poly [ADP-ribose] polymerase 1 (P09874 whole entry): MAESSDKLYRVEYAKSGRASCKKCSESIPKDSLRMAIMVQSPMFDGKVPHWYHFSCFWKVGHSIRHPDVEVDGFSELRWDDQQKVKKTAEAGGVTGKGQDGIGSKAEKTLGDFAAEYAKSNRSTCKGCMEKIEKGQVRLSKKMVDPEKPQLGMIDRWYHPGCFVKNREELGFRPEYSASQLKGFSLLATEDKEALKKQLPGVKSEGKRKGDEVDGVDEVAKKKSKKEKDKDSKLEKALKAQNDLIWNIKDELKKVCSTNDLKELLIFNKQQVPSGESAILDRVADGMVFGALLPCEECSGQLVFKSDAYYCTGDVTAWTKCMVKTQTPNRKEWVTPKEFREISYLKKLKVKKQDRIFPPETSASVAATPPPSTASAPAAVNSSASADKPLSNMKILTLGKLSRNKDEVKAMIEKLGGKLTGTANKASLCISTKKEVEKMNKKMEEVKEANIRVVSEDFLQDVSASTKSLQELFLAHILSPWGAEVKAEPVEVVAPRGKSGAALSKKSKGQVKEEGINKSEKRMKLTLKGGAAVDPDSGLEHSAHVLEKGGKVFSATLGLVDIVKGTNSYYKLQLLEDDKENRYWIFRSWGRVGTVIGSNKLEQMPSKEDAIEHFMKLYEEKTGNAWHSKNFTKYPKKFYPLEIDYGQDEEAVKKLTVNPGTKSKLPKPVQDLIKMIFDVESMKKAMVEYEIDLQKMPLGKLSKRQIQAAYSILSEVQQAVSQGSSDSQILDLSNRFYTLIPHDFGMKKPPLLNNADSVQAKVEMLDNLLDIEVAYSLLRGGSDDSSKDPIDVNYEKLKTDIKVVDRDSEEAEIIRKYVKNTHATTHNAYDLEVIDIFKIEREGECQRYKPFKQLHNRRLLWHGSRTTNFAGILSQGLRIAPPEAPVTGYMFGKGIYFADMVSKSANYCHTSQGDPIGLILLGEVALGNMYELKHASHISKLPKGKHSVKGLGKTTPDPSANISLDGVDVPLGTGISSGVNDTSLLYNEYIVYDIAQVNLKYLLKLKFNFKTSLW

One may read the IC50 as the concentration that inhibits the measured activity by half. A low value points to higher potency. Regarding `CC(C)(C)C(=O)N1CCP(=O)(c2cc(Cc3n[nH]c(=O)c4ccccc34)ccc2F)CC1` [US11248013, Example 10], the IC50 result is “in the range around 0.55 µM”.
